The NIST ThermoML archive (doi:10.1016/j.fluid.2014.08.014)
Numbers after ± are expanded uncertainties.

Test: refractive index (Na D-line) (dimensionless)
Conditions: 293.15 K; 101.33 kPa; Liquid; Standard Abbe refractometry

| refractive index | SMILES |
| --- | --- |
| 1.3328 ± 0.0005 | O [water] |
| 1.3616 ± 0.0005 | CCO [ethanol] |
| 1.3881 ± 0.0005 | CC(C)(C)O [2-methylpropan-2-ol] |
| 1.3955 ± 0.0005 | CC(C)CO [2-methyl-1-propanol] |

| SMILES | refractive index |
| --- | --- |
| CCCCOC(C)=O [butyl ethanoate] | 1.3951 ± 0.0005 |
